{"source": "patent EP0429372A1", "about": "“2-Azolyl nicotinate derivatives as herbicides” (RHONE-POULENC AGROCHIMIE, priority 1989, dated 1991)", "type_in_all_cases": "in vivo", "key": {"Oryza sativa": {"system": "Oryza sativa", "assay": "Example C: selectivity test in major crops, post-emergence application; for ACTIVITE HERBICIDE DE POST LEVEE O R Y: ranges in brackets are in %; for ACTIVITE HERBICIDE DE POST LEVEE T R Z: ranges in brackets are in %; for ACTIVITE HERBICIDE DE POST LEVEE Z E A: ranges in brackets are in %", "conditions": "crop (Riz), 24 days, score 0-5, 0 or 1 = selective", "source_text": "(§1) Dans des pots de 7 x 7 x 8 cm remplis de terre agricole légère, on sème un nombre de graines déterminé en fonction de l'espèce végétale et de la grosseur de la graine.\n(§2) On recouvre ensuite les graines d'une couche de terre d'environ 3 mm d'épaisseur et on laisse germer la graine jusqu'à ce qu'elle donne naissance à une plantule au stade convenable. Le stade de traitement pour les graminées est le stade \"deuxième feuille en formation\". Le stade de traitement pour les dicotylédones, est le stade \"cotylédons étalés, première feuille vraie en développement\".\n(§3) Les pots sont alors traités par pulvérisation de bouillie en quantité correspondant à une dose volumique d'application de 500 l/ha et contenant la matière active à la concentration désirée.\n(§4) La bouillie a été préparée de la même manière qu'à l'exemple A.\n(§5) Les pots traités sont ensuite placés dans des bacs destinés à recevoir l'eau d'arrosage, en subirrigation, et maintenus pendant 24 jours à température ambiante sous 70 % d'humidité relative.\n(§6) Au bout de 24 jours, on mesure un pourcentage (D) de destruction du nombre de pieds dans le pot traité par rapport au nombre de plantes dans les pots non traités (témoin). On mesure, sur les plantes traitées restantes, le pourcentage de réduction de taille (RT) par rapport aux plantes témoin.\n(§7) Le pourcentage de volume foliaire non détruit par le produit est donc donné par la formule : [formula]\n(§8) Cette valeur A est transformée en notation de 0 à 5 selon l'échelle suivante :\n(§9) Ainsi, un produit est jugé comme sélectif vis à vis de la culture lorsque la valeur A notée est de 0 ou 1.\n(§10) Les résultats obtenus sont présentés dans l'exemple C pour des doses d'application comprises entre 0,5 et 4 kg de matière active par hectare selon les produits."}, "Ipomea pupurea": {"system": "Ipomea pupurea", "assay": "Example C: selectivity test in major crops, post-emergence application", "conditions": "576 h", "source_text": "as §1, §2, §3, §4, §5, §6, §7, §8, §9, §10"}, "Triticum aestivum": {"system": "Triticum aestivum", "assay": "Example C: selectivity test in major crops, post-emergence application", "conditions": "crop (Blé), 24 days, score 0-5, 0 or 1 = selective", "source_text": "as §1, §2, §3, §4, §5, §6, §7, §8, §9, §10"}, "Solanum nigrum [1]": {"system": "Solanum nigrum", "assay": "Example C: selectivity test in major crops, post-emergence application", "conditions": "576 h", "source_text": "as §1, §2, §3, §4, §5, §6, §7, §8, §9, §10"}, "Sesbania exaltata": {"system": "Sesbania exaltata", "assay": "Example C: selectivity test in major crops, post-emergence application", "conditions": "576 h", "source_text": "as §1, §2, §3, §4, §5, §6, §7, §8, §9, §10"}, "Zea mays": {"system": "Zea mays", "assay": "Example C: selectivity test in major crops, post-emergence application", "conditions": "crop (Maïs), 24 days, score 0-5, 0 or 1 = selective", "source_text": "as §1, §2, §3, §4, §5, §6, §7, §8, §9, §10"}, "Sinapis alba [2]": {"system": "Sinapis alba", "assay": "Example C: selectivity test in major crops, post-emergence application", "conditions": "4000 g/ha, 576 h", "source_text": "as §1, §2, §3, §4, §5, §6, §7, §8, §9, §10"}, "Xanthium pennsylvanicum": {"system": "Xanthium pennsylvanicum", "assay": "Example C: selectivity test in major crops, post-emergence application", "conditions": "576 h", "source_text": "as §1, §2, §3, §4, §5, §6, §7, §8, §9, §10"}, "Polygonum convolvulus": {"system": "Polygonum convolvulus", "conditions": "576 h", "source_text": "as §1, §2, §3, §4, §5, §6, §7, §8, §9, §10"}, "Convolvulus arvensis": {"system": "Convolvulus arvensis", "conditions": "post-emergence, 576 h", "source_text": "as §1, §2, §3, §4, §5, §6, §7, §8, §9, §10"}, "Chrysanthemum segetum": {"system": "Chrysanthemum segetum", "conditions": "post-emergence, 576 h", "source_text": "as §1, §2, §3, §4, §5, §6, §7, §8, §9, §10"}, "Viola tricolor": {"system": "Viola tricolor", "assay": "Example C: selectivity test in major crops, post-emergence application", "conditions": "576 h", "source_text": "as §1, §2, §3, §4, §5, §6, §7, §8, §9, §10"}, "Digitaria sanguinalis": {"system": "Digitaria sanguinalis", "assay": "Example B: post-emergence herbicidal application, pot test", "conditions": "4000 g/ha, 576 h", "source_text": "as §1\nas §2, with “formation \".” for “formation\".”\nas §3\n(§11) La bouille a été préparée de la même manière qu'à l'exemple A.\nas §5, §6\n(§12) Le pourcentage du volume foliaire non détruit par le produit est donc donné par la formule : [formula]\nas §8\n(§13) Les résultats obtenus sont présentés après le tableau A pour des doses d'application de 4000 g/ha."}, "Ipomea purpurea": {"system": "Ipomea purpurea", "assay": "Example B: post-emergence herbicidal application, pot test", "conditions": "4000 g/ha, 576 h", "source_text": "as §1\nas §2, with “formation \".” for “formation\".”\nas §3, §11, §5, §6, §12, §8, §13"}, "Echinochloa crusgalli": {"system": "Echinochloa crusgalli", "assay": "Example B: post-emergence herbicidal application, pot test", "conditions": "4000 g/ha, 576 h", "source_text": "as §1\nas §2, with “formation \".” for “formation\".”\nas §3, §11, §5, §6, §12, §8, §13"}, "Solanum nigrum [3]": {"system": "Solanum nigrum", "assay": "Example B: post-emergence herbicidal application, pot test", "conditions": "4000 g/ha, 576 h", "source_text": "as §1\nas §2, with “formation \".” for “formation\".”\nas §3, §11, §5, §6, §12, §8, §13"}, "Sinapis alba [4]": {"system": "Sinapis alba", "assay": "Example B: post-emergence herbicidal application, pot test", "conditions": "4000 g/ha, 576 h", "source_text": "as §1\nas §2, with “formation \".” for “formation\".”\nas §3, §11, §5, §6, §12, §8, §13"}}, "note": "Read-outs that look alike come from different tables or passages of the source."}
{"molecule": "CCOC(=O)c1cccnc1-c1nc(-c2ccccc2)nn1S(=O)(=O)N(C)C", "note": "[compound 19]", "values": [{"measurement": "ACTIVITE HERBICIDE DE POST LEVEE O R Y", "setting": "Oryza sativa; dose 4 kg/ha", "value": "0 (90 à 100)"}, {"measurement": "ACTIVITE HERBICIDE DE POST LEVEE I P O", "setting": "Ipomea pupurea; 4000 g/ha", "value": "4 (10 à 30)"}, {"measurement": "ACTIVITE HERBICIDE DE POST LEVEE T R Z", "setting": "Triticum aestivum; dose 4 kg/ha", "value": "0 (90 à 100)"}, {"measurement": "ACTIVITE HERBICIDE DE POST LEVEE S O L", "setting": "Solanum nigrum [1]; 4000 g/ha", "value": "5 (O à 10)"}, {"measurement": "ACTIVITE HERBICIDE DE POST LEVEE S E S", "setting": "Sesbania exaltata; 4000 g/ha", "value": "5 (O à 10)"}, {"measurement": "ACTIVITE HERBICIDE DE POST LEVEE Z E A", "setting": "Zea mays; dose 4 kg/ha", "value": "0 (90 à 100)"}, {"measurement": "ACTIVITE HERBICIDE DE POST LEVEE S I N", "setting": "Sinapis alba [2]", "value": "5 (O à 10)"}, {"measurement": "ACTIVITE HERBICIDE DE POST LEVEE X A N", "setting": "Xanthium pennsylvanicum; 4000 g/ha", "value": "2 (50 à 70)"}]}
{"molecule": "CN(C)S(=O)(=O)n1c(-c2ncccc2C(=O)O)nc2c(Cl)cccc21", "note": "[compound 79]", "values": [{"measurement": "ACTIVITE HERBICIDE DE POST LEVEE P O L", "setting": "Polygonum convolvulus; 2000 g/ha", "value": "3 (30 à 50)"}, {"measurement": "ACTIVITE HERBICIDE DE POST LEVEE C O N", "setting": "Convolvulus arvensis; 2000 g/ha", "value": "4 (10 à 30)"}, {"measurement": "ACTIVITE HERBICIDE DE POST LEVEE C H Y", "setting": "Chrysanthemum segetum; 2000 g/ha", "value": "4 (10 à 30)"}, {"measurement": "ACTIVITE HERBICIDE DE POST LEVEE O R Y", "setting": "Oryza sativa; dose 2 kg/ha", "value": "0 (90 à 100)"}, {"measurement": "ACTIVITE HERBICIDE DE POST LEVEE I P O", "setting": "Ipomea pupurea; 2000 g/ha", "value": "4 (10 à 30)"}, {"measurement": "ACTIVITE HERBICIDE DE POST LEVEE T R Z", "setting": "Triticum aestivum; dose 2 kg/ha", "value": "0 (90 à 100)"}, {"measurement": "ACTIVITE HERBICIDE DE POST LEVEE S O L", "setting": "Solanum nigrum [1]; 2000 g/ha", "value": "3 (30 à 50)"}, {"measurement": "ACTIVITE HERBICIDE DE POST LEVEE S E S", "setting": "Sesbania exaltata; 2000 g/ha", "value": "2 (50 à 70)"}, {"measurement": "ACTIVITE HERBICIDE DE POST LEVEE V I O", "setting": "Viola tricolor; 2000 g/ha", "value": "1 (70 à 90)"}, {"measurement": "ACTIVITE HERBICIDE DE POST LEVEE Z E A", "setting": "Zea mays; dose 2 kg/ha", "value": "0 (90 à 100)"}, {"measurement": "ACTIVITE HERBICIDE DE POST LEVEE X A N", "setting": "Xanthium pennsylvanicum; 2000 g/ha", "value": "1 (70 à 90)"}]}
{"molecule": "CN(C)S(=O)(=O)n1c(-c2ncccc2C(=O)O)nc2cc(Cl)ccc21", "note": "[compound 84]", "values": [{"measurement": "ACTIVITE HERBICIDE DE POST LEVEE P O L", "setting": "Polygonum convolvulus; 1000 g/ha", "value": "4 (10 à 30)"}, {"measurement": "ACTIVITE HERBICIDE DE POST LEVEE C O N", "setting": "Convolvulus arvensis; 1000 g/ha", "value": "5 (O à 10)"}, {"measurement": "ACTIVITE HERBICIDE DE POST LEVEE C H Y", "setting": "Chrysanthemum segetum; 1000 g/ha", "value": "5 (O à 10)"}, {"measurement": "ACTIVITE DE POST-LEVEE DIG", "setting": "Digitaria sanguinalis", "value": "0 (90 à 100)"}, {"measurement": "ACTIVITE DE POST-LEVEE IPO", "setting": "Ipomea purpurea", "value": "3 (30 à 50)"}, {"measurement": "ACTIVITE DE POST-LEVEE ECH", "setting": "Echinochloa crusgalli", "value": "0 (90 à 100)"}, {"measurement": "ACTIVITE DE POST-LEVEE SOL", "setting": "Solanum nigrum [3]", "value": "5 (O à 10)"}, {"measurement": "ACTIVITE DE POST-LEVEE SIN", "setting": "Sinapis alba [4]", "value": "5 (O à 10)"}, {"measurement": "ACTIVITE HERBICIDE DE POST LEVEE O R Y", "setting": "Oryza sativa; dose 1 kg/ha", "value": "1 (70 à 90)"}, {"measurement": "ACTIVITE HERBICIDE DE POST LEVEE I P O", "setting": "Ipomea pupurea; 1000 g/ha", "value": "4 (10 à 30)"}, {"measurement": "ACTIVITE HERBICIDE DE POST LEVEE T R Z", "setting": "Triticum aestivum; dose 1 kg/ha", "value": "1 (70 à 90)"}, {"measurement": "ACTIVITE HERBICIDE DE POST LEVEE S O L", "setting": "Solanum nigrum [1]; 1000 g/ha", "value": "5 (O à 10)"}, {"measurement": "ACTIVITE HERBICIDE DE POST LEVEE S E S", "setting": "Sesbania exaltata; 1000 g/ha", "value": "5 (O à 10)"}, {"measurement": "ACTIVITE HERBICIDE DE POST LEVEE V I O", "setting": "Viola tricolor; 1000 g/ha", "value": "2 (50 à 70)"}, {"measurement": "ACTIVITE HERBICIDE DE POST LEVEE Z E A", "setting": "Zea mays; dose 1 kg/ha", "value": "1 (70 à 90)"}, {"measurement": "ACTIVITE HERBICIDE DE POST LEVEE X A N", "setting": "Xanthium pennsylvanicum; 1000 g/ha", "value": "3 (30 à 50)"}]}
